In patent US9446065B2, “Pharmaceutical composition for use in the treatment and/or the prevention of osteoarticular diseases” (BONE THERAPEUTICS, priority 2008, dated 2016):
“And” between values parts separate entries of the source, which are not always exact repeats. Identical values can stand only once. Like-named read-outs stand apart in the source and are kept apart here.

Tests used:
IL-1β = IL-1β detection (ELISA) in PBMC culture; assay type: cell-based, human; conditions: for IL-1β detection: HA 200 μg/mL, A2A 5 μM
Procedure: (§1) The effects of the combination clonidine and hyaluronic acid were tested in a model of Peripheral Blood Mononuclear Cells. In brief, PBMCs (Peripheral blood mononuclear cells) from heparinized venous blood of healthy volunteers were isolated by Ficoll-gradient centrifugation. MNC (Mononuclear cells) were washed three times in PBS and resuspended in RPMI-1640 medium supplemented with 100 U/mL penicillin, 100 μg/mL streptomycin, and 10% heat-inactivated FBS. Cells were seeded at 100.000 cells in 96-wel plate in a total volume of 200 μL/well.
(§2) PBMC, at 100.000 cells/200 μL, were plated in 96-well microtiter plates and stimulated or not 10 μg/mL phytohemagglutinin (PHA). Effects of hyaluronic acid “HA” (200 μg/mL) and p-aminoclonidine “A2A” (5 μM) were tested on PBMC.
IL-1β detection (By ELISA). Levels of IL-1β from PBMC or culture supernatants were measured by Quantikine ELISA kit (R&D Systems Inc, Minneapolis, USA). The minimum detectable concentration of IL-1β was estimated at 1.0 pg/mL.
(§3) The release of IL-1beta by PBMC and the proliferation of PBMC, induced by PHA stimulation, were set as controls, and compared with the measures for PBMC treated with HA and/or A2A.

[1] = test system: PBMC (Peripheral blood mononuclear cells); test: PBMC proliferation assay (3H-thymidine); assay type: cell-based, human; conditions: for Proliferation: HA 200 μg/mL, A2A 5 μM
Procedure: as §1, §2
Proliferation Assay. The culture was incubated with 1 μCi/mL 3H-thymidine for 24 h before end of culture to measure the proliferation. Then, cells were washed twice with ice-cold PBS and twice with ice-cold 5% trichloroacetic acid (TCA). Finally, cells were lysed with 0.1N NaOH-0.1% Triton-X100. Supernatants were collected and analyzed on a beta-counter in presence of scintillation liquid. Results were done in cpm (“count per minute”=disintegration number of radioactive element observed in series of successive counts of one minute).
as §3

mono-arthritis symptoms = test system: mono-arthritis symptoms; design: Reduction in Pain: concentration or dose not given beside the values; conditions: cited from earlier work
IL-I beta = test: Inhibition of IL-I beta release by LPS-stimulated TH1 cells; assay type: cell-based
Procedure: The inhibition of IL-I beta release by alpha-2-adrenergic agonists, induced by LPS stimulation of TH1 cells, is measured under control conditions (dexamethasone).

acute pain = conditions: cited from earlier work
[2] = PBMC + PHA 10 μg/mL, PBMC + PHA = 100
[3] = PBMC not stimulated, PBMC + PHA = 100
[4] = average data from meta-analyses and/or published studies

## hyaluronic acid [HA]
IL-1β; PBMC + PHA
  increase of IL-1beta secretion over the stimulated conditions: 3 times
IL-1β; PBMC + PHA 10 μg/mL
  IL-1β detection: 6394 pg/mL
IL-1β; [2]
  IL-1β detection: 293% and 292%
IL-1β; PBMC not stimulated
  IL-1β detection: 2095 pg/mL
IL-1β; [3]
  IL-1β detection: 96%
[1]; PBMC + PHA
  reduction of PBMC proliferation: 2 factor
[1]; PBMC + PHA 10 μg/mL
  Proliferation: 9087 cpm
[1]; [2]
  Proliferation: 57% and 56%
[1]; PBMC not stimulated
  Proliferation: 364 cpm
[1]; [3]
  Proliferation: 2.2%
mono-arthritis symptoms; Arich et al., 2005
  Improvement in Function: −11%
  Reduction in Pain: 0%
  Reduction in Pain (max effect reported): −17%
mono-arthritis symptoms; Kolarz et al., 2003
  Improvement in Function: −23%
  Reduction in Pain: −55%
  improvement in function, maximal effect reported in literature: 23%
  improvement in pain, maximal effect reported in literature: 55%
mono-arthritis symptoms; Lo et al., 2004
  Reduction in Pain: −7%
  Reduction in Pain (max effect reported): −47%
mono-arthritis symptoms; Wang et al., 2004
  Reduction in Pain: −8%
  Reduction in Pain (max effect reported): −24%
mono-arthritis symptoms; [4]
  Improvement in Function: −15%
  Reduction in Pain: −10%
  Side-Effects (major side effects only): None
mono-arthritis symptoms; literature
  benefit on swelling: no reported benefit on swelling
mono-arthritis symptoms; meta-analyses that reassessed efficacy
  decrease of pain score (VAS) in meta-analyses: ≤ 15 mm

## Nc1cc(Cl)c(N=C2NCCN2)c(Cl)c1 [A2A, p-aminoclonidine]
IL-1β; PBMC + PHA
  effect on IL-1beta secretion, in words: totally suppresses the increase in IL-1beta secretion
IL-1β; unstimulated PBMC
  effect on basal conditions, in words: no effect
[1]; PBMC + PHA
  effect on PBMC proliferation, in words: not able to inhibit PBMC proliferation
[1]; PBMC + PHA 10 μg/mL
  Proliferation: 16212 cpm
[1]; [2]
  Proliferation: 101%
[1]; PBMC not stimulated
  Proliferation: 786 cpm
[1]; [3]
  Proliferation: 4.9%

## N=C(N)N/N=C/c1c(Cl)cccc1Cl [Guanabenz]
IL-I beta
  effect on IL-I beta release, in words: no effects

## C[C@@H]1C[C@H]2[C@@H]3CCC4=CC(=O)C=C[C@]4(C)[C@@]3(F)[C@@H](O)C[C@]2(C)[C@@]1(O)C(=O)CO [Dexamethasone]
IL-I beta; 10^−7 M, read-out: inhibition of IL-I beta secretion
  inhibition at 0.1 µM: ~65%

## Brc1c(NC2=NCCN2)ccc2nccnc12 [Brimonidine]
IL-I beta
  effect on IL-I beta release, in words: no effects

## Clc1cccc(Cl)c1NC1=NCCN1 [clonidine, N-(2,6-dichlorophenyl)-4,5-dihydro-1H-imidazol-2-amine]
Acute pain; Alagol et al, 2005
  minimum effect duration in acute pain studies: 4 h
Acute pain; Gentili et al, 2001
  duration of effects in acute pain studies (not to exceed): ≤ 72 h
